# Source: patent US20260034094A1, “COMPOSITIONS AND METHODS FOR INDUCING FERROPTOSIS” (Kojin Therapeutics, Inc., priority 2022, published 2026)
# pEC50: −log10 of the molar value.
# Test system: RKN cells
# Experiment: RKN cell profiling assay (cell viability, CellTiter-Glo)
# Format: cell-based
# Details: 96 h, 96 h exposure, read-out: Cell Killing EC50
# Experimental: RKN cells were suspended in assay medium (F-12 medium supplemented with 10% FBS and penicillin/streptomycin) and seeded at 1,000 cells per well (30 μL total volume) in opaque white 384-well plates (Corning). Cells were allowed to adhere for 24 h at 37° C. (95% humidity, 5% CO2) and then exposed to compounds disclosed herein for 72 h, or in the present case, 96 h. DMSO stock solutions of compounds were added to cells using a D300e Digital Dispenser (Tecan). The final DMSO concentration in each well was normalized to 0.5% (v/v) after compound treatment. Cell viability was measured using CellTiter-Glo (Promega). After incubation for 15 min at room temperature, luminescence was measured using a PHERAstar FSX microplate reader (BMG Labtech). Ferroptosis rescue experiments were performed as described previously using cells treated with ferrostatin-1 (fer-1, 1.5 μM) when seeding assay plates. Dose-response data were analyzed to determine EC50 values with GraphPad Prism 9 software using a four-parameter logistic equation or CDD Vault (Collaborative Drug Discovery) using the Levenberg-Marquardt algorithm.
row,Compound,pEC50
1,"N[C@@H](CC[S@@](=O)(CCCC(F)(F)F)=NP(=O)(O)O)C(=O)O [Compound 138, (S)-2-amino-4-((S)-4,4,4-trifluoro-N-phosphonobutylsulfonimidoyl)butanoic acid]",> 3.00
2,N=S(=O)(CCc1cccc(Cl)c1F)CC[C@H](N)C(=O)O (some centres unmarked) [Compound 28],≤ 3.00
3,CC(C)(C)CCS(=N)(=O)CC[C@H](N)C(=O)Nc1nccs1 (some centres unmarked) [Compound 121],≤ 3.00

# Same assay, conditions: cell viability, read-out: Cell Killing EC50
row,Compound,pEC50
1,Cc1cc(Cl)ccc1-c1cccc(C(CCS(=N)(=O)CC[C@H](N)C(=O)O)C(F)(F)F)c1 (some centres unmarked) [Compound 283],≤ 3.00
2,Cc1ccc(-c2cccc(C(CCS(=N)(=O)CC[C@H](N)C(=O)O)C(F)(F)F)c2)c(F)c1 (some centres unmarked) [Compound 284],≤ 3.00
3,Cc1ccccc1-c1ccc(C(O)(CCS(=N)(=O)CC[C@H](N)C(=O)O)C(F)(F)F)cc1 (some centres unmarked) [Compound 429],> 3.00
4,N=S(=O)(CCC(c1ccc(-c2cnc(C3CC3)nc2)cc1)C(F)(F)F)CC[C@H](N)C(=O)O (some centres unmarked) [Compound 252],≤ 3.00
5,N=S(=O)(CC[C@H](N)C(=O)O)CCC(O)(c1ccc(Oc2ccc(Cl)cc2Cl)cc1)C(F)(F)F (some centres unmarked) [Compound 342],> 3.00
6,Cc1ccc(-c2cccc(C(CCS(=N)(=O)CC[C@H](N)C(=O)O)C(F)(F)F)c2)cc1F (some centres unmarked) [Compound 290],≤ 3.00
7,C=C(c1ccc(C(CCS(=N)(=O)CC[C@H](N)C(=O)O)C(F)(F)F)cc1)C(F)(F)F (some centres unmarked) [Compound 260],≤ 3.00
8,N=S(=O)(CCC(c1ccc(-c2ccccc2Cl)cc1)C(F)(F)F)CC[C@H](N)C(=O)O (some centres unmarked) [Compound 221],> 3.00
9,N=S(=O)(CCC(c1ccc(-c2ccc(C(F)F)cc2)cc1)C(F)(F)F)CC[C@H](N)C(=O)O (some centres unmarked) [Compound 231],> 3.00
10,N=S(=O)(CCC(c1ccc(-c2ccc(Cl)cc2Cl)cc1)C(F)(F)F)CC[C@H](N)C(=O)O (some centres unmarked) [Compound 269],> 3.00
11,N=S(=O)(CCC(c1ccc(-c2ccoc2)cc1)C(F)(F)F)CC[C@H](N)C(=O)O (some centres unmarked) [Compound 258],> 3.00
12,Cc1ccc(-c2ccc(C(CCS(=N)(=O)CC[C@H](N)C(=O)O)C(F)(F)F)cc2)c(C)c1 (some centres unmarked) [Compound 280],> 3.00
13,CC(C)c1ccccc1-c1ccc(C(CCS(=N)(=O)CC[C@H](N)C(=O)O)C(F)(F)F)cc1 (some centres unmarked) [Compound 266],> 3.00
14,N=S(=O)(CCC(c1ccc(-c2cc[nH]n2)cc1)C(F)(F)F)CC[C@H](N)C(=O)O (some centres unmarked) [Compound 228],≤ 3.00
15,N=S(=O)(CC[C@H](N)C(=O)O)CCC(O)(c1ncc(-c2ccc(Cl)cc2Cl)cn1)C(F)(F)F (some centres unmarked) [Compound 468],> 3.00
16,N=S(=O)(CCC(c1ccc(C2=CCNCC2)cc1)C(F)(F)F)CC[C@H](N)C(=O)O (some centres unmarked) [Compound 259],≤ 3.00
17,N=S(=O)(CCC(c1ccc(-c2cnc3[nH]ncc3c2)cc1)C(F)(F)F)CC[C@H](N)C(=O)O (some centres unmarked) [Compound 254],≤ 3.00
18,N=S(=O)(CCC(c1ccc(-c2ccc(F)cc2O)cc1)C(F)(F)F)CC[C@H](N)C(=O)O (some centres unmarked) [Compound 281],> 3.00
19,N=S(=O)(CC[C@H](N)C(=O)O)CCC(O)(c1cnc(-c2ccc(Cl)cc2Cl)nc1)C(F)(F)F (some centres unmarked) [Compound 366],> 3.00
20,C#Cc1ccc(C(CCS(=N)(=O)CC[C@H](N)C(=O)O)C(F)(F)F)cc1 (some centres unmarked) [Compound 272],> 3.00
21,N=S(=O)(CCC(c1cccc(-c2ccc(Cl)cc2Cl)c1)C(F)(F)F)CC[C@H](N)C(=O)O (some centres unmarked) [Compound 288],≤ 3.00
22,CN1CCN(c2ccc(-c3ccc(C(CCS(=N)(=O)CC[C@H](N)C(=O)O)C(F)(F)F)cc3)cn2)CC1 (some centres unmarked) [Compound 249],≤ 3.00
23,N=S(=O)(CC[C@H](N)C(=O)O)CCC(O)(c1ccc(-c2ccco2)cn1)C(F)(F)F (some centres unmarked) [Compound 481],> 3.00
24,N=S(=O)(CCC(c1ccc(-c2ccc(Cl)cc2)cc1)C(F)(F)F)CC[C@H](N)C(=O)O (some centres unmarked) [Compound 277],> 3.00
25,N=S(=O)(CCC(c1ccc(-c2cccnc2)cc1)C(F)(F)F)CC[C@H](N)C(=O)O (some centres unmarked) [Compound 243],≤ 3.00

row,Compound,pEC50
1,N=S(=O)(CCC(c1cccc(-c2cccc(F)c2)c1)C(F)(F)F)CC[C@H](N)C(=O)O (some centres unmarked) [Compound 287],≤ 3.00
2,N=S(=O)(CCC(c1ccc(-c2cnc3[nH]ccc3c2)cc1)C(F)(F)F)CC[C@H](N)C(=O)O (some centres unmarked) [Compound 253],> 3.00
3,N=S(=O)(CCC(c1ccccn1)C(F)(F)F)CC[C@H](N)C(=O)O (some centres unmarked) [Compound 313],> 3.00
4,N=S(=O)(CCC(c1ccc(-c2ccc(F)cc2Cl)cc1)C(F)(F)F)CC[C@H](N)C(=O)O (some centres unmarked) [Compound 271],> 3.00
5,Cn1ncc(-c2ccc(C(O)(CCS(=N)(=O)CC[C@H](N)C(=O)O)C(F)(F)F)cc2)cc1=O (some centres unmarked) [Compound 433],≤ 3.00
6,N=S(=O)(CCC(c1ccc(-c2ccc(Cl)s2)cc1)C(F)(F)F)CC[C@H](N)C(=O)O (some centres unmarked) [Compound 256],> 3.00
7,N=S(=O)(CCC(c1ccc(-c2ccc(O)cc2Cl)cc1)C(F)(F)F)CC[C@H](N)C(=O)O (some centres unmarked) [Compound 270],> 3.00
8,Cc1ccc(-c2ccc(C(CCS(=N)(=O)CC[C@H](N)C(=O)O)C(F)(F)F)cc2)c(Cl)c1 (some centres unmarked) [Compound 276],> 3.00
9,N=S(=O)(CC[C@H](N)C(=O)O)CCC(O)(c1ccc(-c2ccc(Cl)cc2Cl)cn1)C(F)(F)F (some centres unmarked) [Compound 465],≤ 3.00
10,N=S(=O)(CC[C@H](N)C(=O)O)CCC(O)(c1ccn(-c2ccc(Cl)cc2Cl)n1)C(F)(F)F (some centres unmarked) [Compound 336],≤ 3.00
11,N=S(=O)(CCC(c1ccc(-c2cn[nH]c2)cc1)C(F)(F)F)CC[C@H](N)C(=O)O (some centres unmarked) [Compound 227],≤ 3.00
12,Cc1cc(C(O)(CCS(=N)(=O)CC[C@H](N)C(=O)O)C(F)(F)F)ccc1-c1ccc(Cl)cc1Cl (some centres unmarked) [Compound 443],> 3.00
13,Cc1cc(Cl)ccc1-c1ccc(C(O)(CCS(=N)(=O)CC[C@H](N)C(=O)O)C(F)(F)F)cc1 (some centres unmarked) [Compound 430],> 3.00
14,Cc1ccc(-c2ccc(C(O)(CCS(=N)(=O)CC[C@H](N)C(=O)O)C(F)(F)F)cc2)c(F)c1 (some centres unmarked) [Compound 437],> 3.00
15,N=S(=O)(CCC(c1ccc(-c2ccccc2)cc1Cl)C(F)(F)F)CC[C@H](N)C(=O)O (some centres unmarked) [Compound 315],≤ 3.00
16,N=S(=O)(CCC(N1CCN(c2ccc(Cl)cc2Cl)CC1)C(F)(F)F)CC[C@H](N)C(=O)O (some centres unmarked) [Compound 423],> 3.00
17,N=S(=O)(CCC(CO)C(F)(F)F)CC[C@H](N)C(=O)O (some centres unmarked) [Compound 320],> 3.00
18,N=S(=O)(CC[C@H](N)C(=O)O)CCC(O)(c1ncc(-c2ccccc2)cn1)C(F)(F)F (some centres unmarked) [Compound 467],> 3.00
19,N=S(=O)(CCC(c1ccc(-c2ccc(C(N)=O)nc2)cc1)C(F)(F)F)CC[C@H](N)C(=O)O (some centres unmarked) [Compound 245],≤ 3.00
20,N[C@@H](CCS(=O)(=O)CCC(O)(c1ncc(-c2ccc(Cl)cc2Cl)cn1)C(F)(F)F)C(=O)O (some centres unmarked) [Compound 470],≤ 3.00
21,Cc1ccccc1-c1ccc(C(O)(CCS(=N)(=O)CC[C@H](N)C(=O)O)C(F)(F)F)nc1 (some centres unmarked) [Compound 471],> 3.00
22,N=S(=O)(CCC(c1ccc(Oc2ccccc2)cc1)C(F)(F)F)CC[C@H](N)C(=O)O (some centres unmarked) [Compound 316],> 3.00
23,N=S(=O)(CCC(c1ccc(-c2ccc(Br)cc2)cc1)C(F)(F)F)CC[C@H](N)C(=O)O (some centres unmarked) [Compound 226],> 3.00
24,N=S(=O)(CCC(c1cccc2ccccc12)C(F)(F)F)CC[C@H](N)C(=O)O (some centres unmarked) [Compound 311],> 3.00
25,Cc1nc(Cl)ccc1-c1ccc(C(CCS(=N)(=O)CC[C@H](N)C(=O)O)C(F)(F)F)cc1 (some centres unmarked) [Compound 248],> 3.00
